Assay results as given in patent US5545640A, “Protease inhibiting succinic acid derivatives” (Bio-Mega/Boehringer Ingeleheim Research Inc., priority 1995, dated 1996).
Where two headings read alike, the source gives them in different places.

Legend:
[1] = system: HIV (H9/HTLV-IIIB stock) in C8166 cells; assay: Cell culture assay: inhibition of syncytia formation in HIV-infected C8166 cells (antiviral, anti-HIV effect); assay type: cell-based, HIV (HTLV-IIIB); human T4 cell line; conditions: Human immunodeficiency virus 1; C8166 cells; H9/HTLV-IIIB, 50 times TCID50; 72 h, 37°; read-out: EC50 (concentration causing 50% inhibition of syncytia formation)
Source text: Typical of such procedures are those described by S. Harada and N. Yamamoto, Jpn. J. Cancer Res. (Gann), 76, 432 (1985), and S. Harada et al., Science, 229, 563 (1985). An assay based on the latter procedures is described in the examples hereinafter.
In addition, Tables 1 to 8 list the results for exemplified compounds of formula 1 when assayed for antiviral (anti-HIV) effects according to the following protocol which is based on a cell culture assay previously described by Harada et al., supra. Transformed cells are used because of the rapidity with which HIV will replicate in the cells.
1. The test compound is dissolved in dimethylsulfoxide to a concentration of 5 mg/mL. The resultant solution .can be stored at 4° until use.
2. The resultant solution is diluted in RPMI 1640 (Gibco Laboratories, St. Lawrence, Mass., USA) to four times (4×) the final concentration which is to be tested. Once diluted in RPMI 1640, the solution is used in the cell culture assay within 4 h.
3. The latter solution (50 μL) is added to triplicate wells of a 96 well flat bottomed microtiter plate. RPMI (50 μL) also is added to control wells.
4. C8166 cells (5×10^4) in 50 μL of HEPES-buffered RPMI 1640 (pH=7.2), 10% heat inactivated fetal calf serum (FCS), […] gentamicin (complete media) are added to all wells.
5. Fifty times TCID50 of H9/HTLV-IIIB stock (stored in liquid nitrogen as cell culture supernatant in 50% FCS) in 100 μL of complete media is added to all wells. The infectious titer of the virus stocks is as previously determined by end point dilution on C8166 cells. The titer of stocks are stable for 6-12 months when stored at -193°.
6. Microtiter plates are then placed on level shelves of a 37°, 5% CO2 humidified incubator for 72 h.
7. Plates are then removed and centers of syncytia are counted in each well by low power phase contrast light microscopy. […] Control wells should have between 25 and 75 centers of syncytia per well.
8. Percent inhibition of syncytia formation is calculated by the formula: [formula]
The concentration of the test compound which causes a 50% inhibition of syncytia formation, i.e. the EC50, is determined by using the technique of serial dilution of the working solution at step 3 and graphically plotting the observed percent inhibition of syncytia formation against the various concentrations of the test compound.
In the following tables, assay results are listed for the exemplified compounds from the aforementioned recombinant HIV protease HPLC assay under the heading IC50 (nM) and from the cell culture assay under the heading EC50 (nM). Note that for some of the compounds listed in tables, the EC50 's have not been determined (ND).

HIV protease = molecular target: T1, HIV protease (Human immunodeficiency virus type 1 group M subtype B, UniProt P04585); assay: biochemical; conditions: read-out: IC50 (concentration causing 50% inhibition of HIV protease)
T1 construct: an HIV-encoded enzyme known as HIV protease
Source text: The procedure is based on the capacity of the test compound to inhibit enzymatic cleavage by HIV protease of a decapeptide (the substrate) having an amino acid sequence which includes a known HIV protease cleavage site of a HIV polyprotein; see H. G. Krausslich et al., Proc. Natl. Acad. Sci. USA, 86, 807 (1989).
Anderson, S. Rakhit and C. Yoakim in the European patent application 443 560, published Aug. 28, 1991.

[2] = recombinant HIV protease, decapeptide substrate, HPLC assay

Row | Compound | EC50 [1] [nM] | IC50 (HIV protease; [2]) [nM] | IC50 (HIV protease) [nM]
1 | CCC(CC)NC(=O)C[C@@H](C(=O)NC[C@@H](O)[C@H](Cc1ccccc1)NC(=O)c1c(Cl)ccc(Cl)c1Cl)C(C)(C)C [Entry 67] | 360 | 6 | 
2 | CCC(CC)NC(=O)C[C@@H](C(=O)NC[C@@H](O)[C@H](Cc1ccccc1)NC(=O)[C@@H](NC(=O)c1cnc2ccccc2n1)C(C)C)C(C)(C)C [Entry 31] | 25 |  | 3
3 | CCC(CC)NC(=O)C[C@@H](C(=O)NC[C@@H](O)[C@H](Cc1ccccc1)NC(=O)[C@H](CC(N)=O)NC(=O)C=Cc1ccccc1)C(C)(C)C [Entry 17] | 1400 | 7 | 
4 | CCC(CC)NC(=O)C[C@@H](C(=O)NC[C@@H](O)[C@H](Cc1ccccc1)NC(=O)[C@@H](NC(C)=O)C(C)C)C(C)(C)C [Entry 28] | 530 | 4 | 
5 | CCC(CC)NC(=O)C[C@@H](C(=O)NC[C@@H](O)[C@H](Cc1ccccc1)NC(=O)COc1c(C)cccc1C)C(C)(C)C [Entry 71, N^1-(1-Ethylpropyl)-N^4 -{3(S)-{{(2,6-dimethylphenoxy)acetyl}amino}-2(R)-hydroxy-4-phenylbutyl}-3(R)-tert-butylbutanediamide] | 645 | 3.5 | 
6 | CC(C)c1cccc(C(C)C)c1NC(=O)C[C@@H](C(=O)NC[C@@H](O)[C@H](Cc1ccccc1)NC(=O)[C@@H](NC(=O)c1ccc2ccccc2n1)[C@@H](C)O)C(C)(C)C [Entry 42] | 830 | 19 | 
7 | CCC(CC)NC(=O)C[C@@H](C(=O)NC[C@@H](O)[C@H](Cc1ccccc1)NC(=O)[C@H](CC(N)=O)NC(=O)c1cc2ccccc2n1C)C(C)(C)C [Entry 11] | 660 | 14 | 
8 | CCC(CC)NC(=O)C[C@@H](C(=O)NC[C@@H](O)[C@H](Cc1ccccc1)NC(=O)[C@H](CC(N)=O)NC(=O)CCCc1ccccc1)C(C)(C)C [Entry 21] | 1100 | 5 | 
9 | CCC(CC)NC(=O)C[C@@H](C(=O)NC[C@@H](O)[C@H](Cc1ccccc1)NC(=O)[C@@H](NC(=O)c1cnc2ccccc2n1)[C@@H](C)O)C(C)(C)C [Entry 26] | 65 |  | 4
10 | CCC(CC)NC(=O)C[C@@H](C(=O)NC[C@@H](O)[C@H](Cc1ccccc1)NC(=O)COc1c(C)cc(C)cc1C)C(C)(C)C [Entry 70] | 1200 | 4.6 | 
11 | CCC(CC)NC(=O)CC(C(=O)NC[C@@H](O)[C@H](Cc1ccccc1)NC(=O)[C@H](CC(N)=O)NC(=O)OCc1ccccc1)C(C)C (some centres unmarked) [Entry 48] |  | 32 | 
12 | CCC(CC)NC(=O)C1CCCCC1C(=O)NC[C@@H](O)[C@H](Cc1ccccc1)NC(=O)[C@@H](NC(=O)OCc1ccccc1)C(C)C (some centres unmarked) [Entry 57] |  | 14 | 
13 | CCC(CC)NC(=O)C[C@@H](C(=O)NC[C@@H](O)[C@H](Cc1ccccc1)NC(=O)[C@H](CC(N)=O)NC(=O)c1nccc2ccccc12)C(C)(C)C [Entry 7] |  | 20 | 
14 | CCC(CC)NC(=O)C[C@@H](C(=O)NC[C@@H](O)[C@H](Cc1ccccc1)NC(=O)[C@H](CC(N)=O)NC(=O)C1Cc2ccccc2CN1)C(C)(C)C (some centres unmarked) [Entry 24] |  | 4 | 
15 | CCC(CC)OC(=O)CC(C(=O)NC[C@@H](O)[C@H](Cc1ccccc1)NC(=O)[C@H](CC(N)=O)NC(=O)OCc1ccccc1)C(C)(C)C (some centres unmarked) [Entry 47] |  | 51 | 
16 | CCC(CC)NC(=O)C[C@@H](C(=O)NC[C@@H](O)[C@H](Cc1ccccc1)NC(=O)[C@H](CC(N)=O)NC(=O)CCCCc1ccccc1)C(C)(C)C [Entry 12] |  | 13 | 
17 | CCC(CC)NC(=O)C[C@@H](C(=O)NC[C@@H](O)[C@H](Cc1ccccc1)NC(=O)[C@@H](NC(=O)OC(C)(C)C)[C@@H](C)C(=O)OCc1ccccc1)C(C)(C)C [Entry 4] |  | 80 | 
18 | CCC(CC)NC(=O)C[C@@H](C(=O)NC[C@@H](O)[C@H](Cc1ccccc1)NC(=O)[C@H](CC(N)=O)NC(=O)CNc1ccccc1)C(C)(C)C [Entry 19] |  | 5 | 
19 | CCC(CC)NC(=O)C[C@@H](C(=O)NC[C@@H](O)[C@H](Cc1ccccc1)NC(=O)[C@H](CC(N)=O)NC(=O)C1Cc2ccccc2CN1)C(C)(C)C (some centres unmarked) [Entry 5] |  | 32 | 
